The source of these data is EP3098220A1, “PROCESS FOR THE PREPARATION OF A NADPH OXIDASE INHIBITOR AND ITS POLYMORPHS AND USES THEREOF” (GenKyoTex SA, priority 2015, dated 2016).

Assay type in all cases: physicochemical
Data set [1] in a line: Solubility assessment of the two crystal forms (solubilized free base concentration over time in pH 7.4 buffer, HPLC). The conditions noted are these: pH 7.4, 20°C, protected from light.
Experiment in data set [2]: as above
The conditions noted are these: for solubility: pH 7.4. As for the experimental part: The solubility of the two crystal forms have been characterized as described below: • A suspension is prepared in the buffer. Magnetic stirring is applied at 100 rpm.
The concentration of the free base in solution in buffer solution at pH 7.4 (38g Na2HPO4, 12 H2O + 3,8g NaH2PO4, 2 H2O completed to 1L with de-ionized water) is determined after 30 min, […], 2h, 4h, 6h and 24h at ambient temperature protected from light. For that purpose, the samples are withdrawn and filtered on filter Millex PVDF 0.22µm (diameter=13mm) and diluted in water/acetonitrile 50/50 (v/v) in order to reach a concentration in the range of standard solutions concentrations. Two separated dilutions are performed for each sample and the final result is the mean of these two dilutions results. The concentration of the solubilized fraction is determined by HPLC by a short gradient reverse phase standard method with UV-diode array detection solution.
The following tables display the solubilized freebase concentrations as a function of time at pH 7.4 (Table 10) at 20°C (samples protected from light) for: - Form A : crystalline freebase (sample 2), - Form B : crystalline freebase (sample 1).

Data set [3] is described as follows: Hygroscopicity assessment by dynamic water vapor sorption/desorption analysis (DVS). The conditions noted are these: for sample mass uptake: 25°C; for hygroscopic character: criteria: 2% maximum uptake at 60% relative humidity. As for the experimental part: The dynamic vapor sorption (DVS) analysis with water is performed on a DVS-Intrinsic incubator from SMS Ltd, equipped with DVS-Intrinsic Control Software 1.0. A sample weight of about 8 to 10mg, placed in an aluminum pan holder, is submitted to a full cycle analysis (sorption followed by desorption) in a dm/dt mode according to the conditions described in Table 6 below. Table 6 [table] The sample obtained after crystallization protocol is pre-dried under a stream of dry filtered air until a stable weight is obtained. Next, relative humidity is increased by 5% increments. For each step, the sample mass is allowed to increase until equilibrium is reached (dm/dt criterion), and then a new relative humidity rise occurs. […] After equilibration at this point, desorption begins in a similar stepwise fashion, with sample weight again allowed to stabilize after each incremental humidity decrease. For each segment of the method described above, the recording of the sample mass allows describing of the whole sorption/desorption behavior versus relative humidity. The hygroscopic character of the two crystal forms has been investigated as described above.

Data set [4] can be described thus: Solubility assessment in pH 1 HCl/KCl buffer (saturation, 24 hours at 20°C, HPLC). Conditions: pH 1, simulated gastric fluid, thermodynamic from solid. As for the experimental part: The solubility of the HC1 salt and of the free base was compared in a pH1 HC1/KC1 buffer and in a pH 7.4 phosphate buffer. For each medium, the saturation of the medium is obtained by adding an excess of active ingredient to a given volume of test medium. The suspension is stirred over 24 hours at 20°C, protected from light. The supernatant is then isolated by centrifugation, diluted in a solvent mixture allowing its injection into the chromatographic system. The compound concentration in solution for each medium is determined by external standardization and HPLC under the conditions detailed in Table3 below. Solubility was tested over a range from 1 µg/mL up to 1 mg/mL.

≈ marks a conversion by molar mass, not a printed value. Entries after “also recorded” stand apart in the source; their conditions may differ. Where two headings read alike, the source gives them in different places. A value given as a limit tells only on which side of the number the result lay.

For the molecule `CN(C)c1cccc(-c2c3c(=O)n(-c4ccccc4Cl)[nH]c3cc(=O)n2C)c1` [Form A, 2-(2-chlorophenyl)-4-[3-(dimethylamino)phenyl]-5-methyl-1H-pyrazolo[4,3-c] pyridine-3,6(2H,5H)-dione], the solubility at 1 h in data set [1] (phosphate buffer, 20 °C, pH 7.4, aqueous buffer, thermodynamic from solid, read-out: Solubilized fraction) stood at 350 µg/mL (≈ 886 µM). In addition, the solubility in data set [2] was 500 µg/mL (≈ 1270 µM). For the same molecule, in data set [2] (phosphate buffer, 20 °C, pH 7.4, aqueous buffer, thermodynamic from solid, pH 7.4, 20°C, protected from light, 30min, read-out: Solubilized fraction), the solubility at 30 min came to 330 µg/mL (≈ 836 µM). Besides, the solubility at 2 h in data set [2] (phosphate buffer, 20 °C, pH 7.4, aqueous buffer, thermodynamic from solid, pH 7.4, 20°C, protected from light, 2h, read-out: Solubilized fraction) was determined as 370 µg/mL (≈ 937 µM). Besides, the solubility at 4 h in data set [2] (phosphate buffer, 20 °C, pH 7.4, aqueous buffer, thermodynamic from solid, pH 7.4, 20°C, protected from light, 4h, read-out: Solubilized fraction) is 390 µg/mL (≈ 988 µM). For the same molecule, the solubility at 6 h in data set [2] (phosphate buffer, 20 °C, pH 7.4, aqueous buffer, thermodynamic from solid, pH 7.4, 20°C, protected from light, 6h, read-out: Solubilized fraction) turned out to be 400 µg/mL (≈ 1010 µM). Moreover, in data set [2] (phosphate buffer, 20 °C, pH 7.4, aqueous buffer, thermodynamic from solid, pH 7.4, 20°C, protected from light, 24 h, read-out: Solubilized fraction), the solubility at 24 h came out at 510 µg/mL (≈ 1290 µM). Also, the sample mass uptake in data set [3] (60% relative humidity) is on record as 0.2%; in data set [3] (95% relative humidity), 0.3%.
On to `CN(C)c1cccc(-c2c3c(=O)n(-c4ccccc4Cl)[nH]c3cc(=O)n2C)c1` [free base, 2-(2-chlorophenyl)-4-[3-(dimethylamino)phenyl]-5-methyl-1H-pyrazolo[4,3-c] pyridine-3,6(2H,5H)-dione], for which the sample mass uptake is given as 0.2% in data set [3] (60% relative humidity) and 0.3% in data set [3] (95% relative humidity). Besides, in data set [3], the hygroscopic character result is recorded as “non-hygroscopic”.
Regarding `CN(C)c1cccc(-c2c3c(=O)n(-c4ccccc4Cl)[nH]c3cc(=O)n2C)c1` [Form B, 2-(2-chlorophenyl)-4-[3-(dimethylamino)phenyl]-5-methyl-1H-pyrazolo[4,3-c] pyridine-3,6(2H,5H)-dione], the Solubilized fraction was found to be 0.25 mg/mL in data set [1] (1h); 0.23 mg/mL in data set [2] (pH 7.4, 20°C, protected from light, 30min); 0.26 mg/mL in data set [2] (pH 7.4, 20°C, protected from light, 2h); 0.27 mg/mL in data set [2] (pH 7.4, 20°C, protected from light, 4h); 0.28 mg/mL in data set [2] (pH 7.4, 20°C, protected from light, 6h); 0.26 mg/mL in data set [2] (pH 7.4, 20°C, protected from light, 24 h). The solubility in data set [2] (phosphate buffer, 20 °C, pH 7.4, aqueous buffer, thermodynamic from solid, read-out: Solubility) was 300 µg/mL (≈ 760 µM). In addition, in data set [3], the hygroscopic character result was “non-hygroscopic; also recorded: not hygroscopic”. Besides, the “mass loss upon drying” value in data set [3] (drying at 0%RH) worked out at 0.2%. The solubility at 24 h in data set [4] was > 30000 µg/mL.
